Source: article PMC10377643, “Exploration of Bis-Cinnamido-Polyamines as Intrinsic Antimicrobial Agents and Antibiotic Enhancers” (Biomolecules, 2023)
Values after ≈ are worked out from the molar mass of the structure shown.

What was measured:
[1] = system: S. aureus ATCC 25923; assay: Antimicrobial MIC, S. aureus; type: cell-based; settings: Staphylococcus aureus, ATCC25923, mean (n = 3)
Method: (§1) The susceptibility of bacterial strains S. aureus (ATCC 25923), E. coli (ATCC 25922) and P. aeruginosa (ATCC 27853) to antibiotics and compounds was determined using protocols reported previously. Additional antimicrobial evaluation against MRSA (ATCC 43300), Klebsiella pneumoniae (ATCC 700603), Acinetobacter baumannii (ATCC 19606), Candida albicans (ATCC 90028) and Cryptococcus neoformans (ATCC 208821) was undertaken at the Community for Open Antimicrobial Drug Discovery at The University of Queensland (Australia) according to their standard protocols reported previously.

[2] = system: MRSA ATCC 43300; assay: Antimicrobial MIC, MRSA (CO-ADD); type: cell-based, methicillin-resistant S. aureus; settings: Staphylococcus aureus; MRSA ATCC 43300; mean (n = 2); read-out: MIC MRSA
Method: as §1

[3] = system: P. aeruginosa ATCC 27853; assay: Antimicrobial MIC, P. aeruginosa; type: cell-based; settings: Pseudomonas aeruginosa, ATCC27853, mean (n = 3)
Method: as §1

[4] = system: E. coli ATCC 25922; assay: Antimicrobial MIC, E. coli; type: cell-based, Escherichia coli; settings: mean (n = 3)
Method: as §1

[5] = system: C. albicans ATCC 90028; assay: Antifungal MIC, C. albicans (CO-ADD); type: cell-based; settings: Candida albicans, ATCC90028, mean (n = 2)
Method: as §1

[6] = system: C. neoformans ATCC 208821; assay: Antifungal MIC, C. neoformans (CO-ADD); type: cell-based; settings: Cryptococcus neoformans, ATCC208821, mean (n = 2)
Method: as §1

[7] = Cytotoxicity assay; type: cell-based, human; settings: human, HEK293 human embryonic kidney cells, mean (n = 2), read-out: Cytotoxicity (IC50), concentration of compound at 50% cytotoxicity
Method: Cytotoxicity assays were conducted using the protocols previously reported.

[8] = system: human red blood cells; assay: Hemolytic assay; type: cell-based; settings: mean (n = 2)
Method: Hemolysis assays were conducted using the protocols previously reported.

[9] = system: P. aeruginosa ATCC 27853; assay: Doxycycline enhancement against P. aeruginosa; type: cell-based, Pseudomonas aeruginosa; settings: doxycycline fixed at 4.5 µM
Method: (§2) Antibiotic enhancer concentrations were determined using previously reported protocols.
We then evaluated the set of analogues for the ability to enhance the antibiotic activity of doxycycline against P. aeruginosa ATCC 27853 and of erythromycin against E. coli ATCC 25922 (Table 2). In the case of doxycycline, a fixed concentration of the antibiotic of 4.5 μM, which is twenty-fold lower than the intrinsic MIC 90 μM against this organism, was used. Each of the test compounds was then evaluated at a range of concentrations varying from 3.125 to 50–100 μM, with the upper concentration dependent upon the compounds intrinsic MIC towards P. aeruginosa (Table 1). […] While the observation of cytotoxicity/hemolytic properties of 16a–c, 14f and 13f reduces our interest in these analogues, analogues 13b and 13d were identified as non-toxic and strong enhancers of the action of doxycycline towards P. aeruginosa.

[10] = system: E. coli ATCC 25922; assay: Erythromycin enhancement against E. coli; type: cell-based, Escherichia coli; settings: erythromycin fixed at 10.9 µM (8 µg/mL)
Method: as §2

[11] = Escherichia coli, ATCC25922, E. coli ATCC 25922

SMILES	MIC [1]	MIC [2]	MIC [3]	MIC [4, 11]	MIC [5]	MIC [6]	IC50 [7]	Hemolysis (HC10), concentration of compound at 10% hemolytic activity [8]	Dox/P. a: concentration required to restore doxycycline activity [9]	Dox/P. a: fold change (intrinsic MIC of test compound / combination MIC) [9]	Eryth/E. c: concentration required to restore erythromycin activity [10]	Eryth/E. c: fold change (intrinsic MIC of test compound / combination MIC) [10]	MIC ([4]; E. coli ATCC 25922)
COc1ccc(/C=C/C(=O)NCCCNCCCCCCCCCCNCCCNC(=O)/C=C/c2ccc(OC)c(Br)c2)cc1Br.O=C(O)C(F)(F)F.O=C(O)C(F)(F)F [Compound 15e, N^1,N^10-Bis(3-((E)-3-(3-bromo-4-methoxyphenyl)acrylamido)propyl)decane-1,10-diaminium 2,2,2-trifluoroacetate]	1.57 µM	≤ 0.25 µM	50.4 µM	25.2 µM	32.2 µM	1 µM	> 32.2 µM	24.1 µM	50.4 µM	1 fold			
COc1ccc(/C=C/C(=O)NCCCNCCCCCCCNCCCNC(=O)/C=C/c2ccc(OC)cc2)cc1.O=C(O)C(F)(F)F.O=C(O)C(F)(F)F [Compound 14c, N^1,N^7-Bis(3-((E)-3-(4-methoxyphenyl)acrylamido)propyl)heptane-1,7-diaminium 2,2,2-trifluoroacetate]	31.5 µM	20.2 µM	> 252 µM	252 µM	> 40.4 µM		> 40.4 µM	>40.4 µM	31.5 µM	> 8 fold	126 µM	2 fold	
COc1ccc(/C=C/C(=O)NCCCNCCCCCCCCCCCCNCCCNC(=O)/C=C/c2ccc(OC)cc2)cc1.O=C(O)C(F)(F)F.O=C(O)C(F)(F)F [Compound 14f, N^1,N^12-Bis(3-((E)-3-(4-methoxyphenyl)acrylamido)propyl)dodecane-1,12-diaminium 2,2,2-trifluoroacetate]	3.62 µM	≤ 0.29 µM	232 µM	7.2 µM	> 37.1 µM		24.3 µM		7.24 µM	32 fold	3.62 µM	2 fold	7.24 µM
COc1ccc(/C=C/C(=O)NCCCNCCCCNCCCNC(=O)/C=C/c2ccc(OC)c(Br)c2)cc1Br.O=C(O)C(F)(F)F.O=C(O)C(F)(F)F [Compound 15a, N^1,N^4-Bis(3-((E)-3-(3-bromo-4-methoxyphenyl)acrylamido)propyl)butane-1,4-diaminium 2,2,2-trifluoroacetate]	13.8 µM	2.2 µM	> 220 µM	55 µM	17.6 µM	≤ 0.28 µM	> 35.2 µM		27.5 µM	> 8 fold	13.7 µM	4 fold	
COc1ccc(/C=C/C(=O)NCCCNCCCCCCCCCCCCNCCCNC(=O)/C=C/c2ccc(OC)c(Br)c2)cc1Br.O=C(O)C(F)(F)F.O=C(O)C(F)(F)F [Compound 15f, N^1,N^12-Bis(3-((E)-3-(3-bromo-4-methoxyphenyl)acrylamido)propyl)dodecane-1,12-diaminium 2,2,2-trifluoroacetate]	6.12 µM	≤ 0.24 µM	> 196 µM	6.12 µM		≤ 0.24 µM	1.12 µM	1.17 µM	49.0 µM	> 4 fold	6.1 µM	1 fold	
OC(Cn1cncn1)(Cn1cncn1)c1ccc(F)cc1F [fluconazole, reference compound]					0.4 µM (≈ 0.123 µg/mL)	26 µM (≈ 7.96 µg/mL)							
O=C(C=Cc1ccccc1)NCCCNCCCCNCCCNC(=O)C=Cc1ccccc1.O=C(O)C(F)(F)F.O=C(O)C(F)(F)F [Compound 13a, N^1,N^4-Bis(3-cinnamamidopropyl)butane-1,4-diaminium 2,2,2-trifluoroacetate]	724 µM	> 46.3 µM	724 µM	724 µM	> 46.3 µM	> 46.3 µM			145 µM	5 fold	145 µM	5 fold	
